Like-named read-outs stand apart in the source and are kept apart here.
Biological target: T1, soybean lipoxidase type V (Glycine max, UniProt P08170)
T1 sequence (P08170 1-839): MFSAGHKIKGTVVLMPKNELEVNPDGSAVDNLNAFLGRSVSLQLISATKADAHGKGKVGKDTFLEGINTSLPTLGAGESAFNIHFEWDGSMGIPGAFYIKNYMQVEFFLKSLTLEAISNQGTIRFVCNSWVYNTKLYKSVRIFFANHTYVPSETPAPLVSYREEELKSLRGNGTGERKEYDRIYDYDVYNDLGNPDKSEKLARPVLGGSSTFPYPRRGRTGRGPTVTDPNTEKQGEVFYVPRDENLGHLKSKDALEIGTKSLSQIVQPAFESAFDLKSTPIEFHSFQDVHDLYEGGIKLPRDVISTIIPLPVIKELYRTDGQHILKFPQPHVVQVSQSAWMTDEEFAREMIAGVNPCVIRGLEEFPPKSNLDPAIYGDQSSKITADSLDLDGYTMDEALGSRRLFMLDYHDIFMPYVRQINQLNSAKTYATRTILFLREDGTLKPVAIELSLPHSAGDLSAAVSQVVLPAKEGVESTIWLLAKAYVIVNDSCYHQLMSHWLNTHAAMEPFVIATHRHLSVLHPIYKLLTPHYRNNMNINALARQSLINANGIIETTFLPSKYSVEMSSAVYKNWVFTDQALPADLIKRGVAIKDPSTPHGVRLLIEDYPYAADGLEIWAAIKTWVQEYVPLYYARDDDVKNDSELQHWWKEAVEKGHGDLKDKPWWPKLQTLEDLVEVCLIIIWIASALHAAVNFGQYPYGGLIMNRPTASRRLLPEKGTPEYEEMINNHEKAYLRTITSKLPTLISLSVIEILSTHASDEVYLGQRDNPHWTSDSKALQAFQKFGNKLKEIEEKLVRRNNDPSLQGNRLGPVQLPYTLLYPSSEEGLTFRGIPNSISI
Details: for A234 nm/min.: 25° C., 0.1M borate pH 9

SMILES | A234 nm/min. (NDGA 1.3 × 10^-4 M) | A234 nm/min. (NDGA 2.6 × 10^-4 M) | A234 nm/min. (NDGA 3.2 × 10^-4 M) | A234 nm/min. (NDGA 3.9 × 10^-4 M) | inhibition at 130 µM (pH 9) | inhibition at 260 µM (pH 9) | inhibition at 320 µM (pH 9) | A234 nm/min. (alpha-Naphthol 2.5 × 10^-5 M) | A234 nm/min. (alpha-Naphthol 6.2 × 10^-5 M) | A234 nm/min. (alpha-Naphthol 7.5 × 10^-5 M) | A234 nm/min. (alpha-Naphthol 8.8 × 10^-5 M) | A234 nm/min. (alpha-Naphthol 12.5 × 10^-5 M) | inhibition at 25 µM (pH 9) | inhibition at 62 µM (pH 9) | inhibition at 75 µM (pH 9) | inhibition at 88 µM (pH 9) | inhibition at 125 µM (pH 9)
CC(Cc1ccc(O)c(O)c1)C(C)Cc1ccc(O)c(O)c1 (centres unmarked) [NDGA, nordihydroguaiaretic acid] | 0.217 min⁻¹ | 0.186 min⁻¹ | 0.100 min⁻¹ | 0.035 min⁻¹ | 1% | 14% | 54% |  |  |  |  |  |  |  |  |  | 
Oc1cccc2ccccc12 [alpha-Naphthol, alpha-naphthol] |  |  |  |  |  |  |  | .230 min⁻¹ | .141 min⁻¹ | .074 min⁻¹ | .069 min⁻¹ | .021 min⁻¹ | 12% | 46% | 72% | 74% | 92%
